From patent US8053574B2, “Organic compounds” (Novartis AG, priority 2007, dated 2011) come the findings set out here.

SMILES strings stand for the structures.

By Ki is commonly meant a measure of affinity in units of concentration, obtained from inhibition or displacement. A higher Ki goes with a looser hold on the target.

This assay concerns the target PI3K γ (Homo sapiens, UniProt P48736). The assay can be described thus: PI3 kinase phosphorylation assay (Biological Method 1), Ki γ. It counts as biochemical. Here is the method:
The compounds of the invention were synthesized according to the examples provided above. PI3K inhibitory (IC50) values of the compounds were determined according to Biological Method 1.
Assay 1: Homogenous Solution Phase Assay
Compounds to be tested are dissolved in DMSO and directly distributed into 384-well flashplates at 1.25 μL per well. To start the reaction, 20 μL of 6 nM PI3 kinase are added into each well followed by 20 μL of 400 nM ATP containing a trace of radiolabeled ATP and 900 nM 1-alpha-phosphatidylinositol (PI). The plates are briefly centrifuged to remove any air gap. The reaction is performed for 15 minutes and then stopped by the addition of 20 μL of 100 mM EDTA. The stopped reaction is incubated overnight at RT to allow the lipid substrate to bind by hydrophobic interaction to the surface of the flashplate. The liquid in the wells is then washed away, and the labeled substrate is detected with scintillation counting.
Assay 2: One Step Solid Phase Assay
This method is similar to Assay 1 except that the lipid substrate (1-alpha-phosphatidylinositol (PI)) is first dissolved in a coating buffer and incubated on flashplate at room temperature overnight to allow the lipid substrate to bind by hydrophobic interaction to the surface of the flashplate. Unbound substrate is then washed away. On the day of assay, 20 μL of 6 nM PI3 kinase are added into each well followed by 20 μL of 400 nM ATP containing trace of radiolabeled ATP. Compounds are added together with enzyme and ATP to the lipid-coated plates. The plates are briefly centrifuged to remove any air gap. The reaction is performed for two to three hours. The reaction is stopped by addition of 20 μL of 100 mM EDTA or by immediate plate washing. Phosphorylated lipid substrate is detected by scintillation counting.
Assay 3: ATP Depletion Assay
Compounds to be tested are dissolved in DMSO and directly distributed into a black 384-well plate at 1.25 μL per well. To start the reaction, 25 μL of 10 nM PI3 kinase and 5 μg/mL 1-alpha-phosphatidylinositol (PI) are added into each well followed by 25 μL of 2 μM ATP. The reaction is performed until approx 50% of the ATP is depleted, and then stopped by the addition of 25 μL of KinaseGlo solution. The stopped reaction is incubated for 5 minutes and the remaining ATP is then detected via luminescence.

Where [1] appears, read: Table 1, compounds of formula X.
Where [2] appears, read: Table 2, compounds of formula X.
The mark [3] stands for this setting: Table 3, compounds of formula XI.

Sequence of PI3K γ (P48736 whole entry): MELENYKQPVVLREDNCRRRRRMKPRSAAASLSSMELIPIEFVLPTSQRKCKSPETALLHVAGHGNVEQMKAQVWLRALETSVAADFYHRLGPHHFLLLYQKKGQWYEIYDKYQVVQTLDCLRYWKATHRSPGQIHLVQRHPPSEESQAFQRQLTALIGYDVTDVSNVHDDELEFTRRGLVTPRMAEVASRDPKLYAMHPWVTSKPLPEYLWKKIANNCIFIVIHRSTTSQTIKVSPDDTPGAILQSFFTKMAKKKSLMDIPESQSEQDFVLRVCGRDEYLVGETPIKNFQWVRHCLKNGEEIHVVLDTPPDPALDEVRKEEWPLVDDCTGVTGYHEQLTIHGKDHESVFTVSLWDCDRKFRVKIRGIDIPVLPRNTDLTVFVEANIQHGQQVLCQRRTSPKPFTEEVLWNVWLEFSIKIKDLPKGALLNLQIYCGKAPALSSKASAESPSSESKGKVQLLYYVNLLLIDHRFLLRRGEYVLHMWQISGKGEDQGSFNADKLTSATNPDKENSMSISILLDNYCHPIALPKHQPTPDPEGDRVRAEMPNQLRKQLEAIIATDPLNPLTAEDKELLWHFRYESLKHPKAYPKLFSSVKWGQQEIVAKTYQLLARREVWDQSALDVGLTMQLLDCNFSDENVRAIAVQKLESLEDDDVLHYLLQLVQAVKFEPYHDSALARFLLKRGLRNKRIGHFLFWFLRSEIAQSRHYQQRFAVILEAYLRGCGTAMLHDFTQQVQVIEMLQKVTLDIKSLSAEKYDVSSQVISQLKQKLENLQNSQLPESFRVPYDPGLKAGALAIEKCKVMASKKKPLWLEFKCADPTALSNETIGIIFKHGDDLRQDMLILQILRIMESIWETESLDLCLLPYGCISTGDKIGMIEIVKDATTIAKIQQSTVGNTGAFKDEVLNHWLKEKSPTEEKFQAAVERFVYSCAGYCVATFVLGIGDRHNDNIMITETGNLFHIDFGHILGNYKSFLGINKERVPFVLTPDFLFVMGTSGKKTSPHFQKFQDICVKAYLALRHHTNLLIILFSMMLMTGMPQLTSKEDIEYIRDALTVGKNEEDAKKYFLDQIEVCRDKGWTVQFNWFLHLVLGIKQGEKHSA

For the setting “Table 4”, `CCn1nnc(CCNC(=O)Nc2cn3cc(-c4cccnc4)ncc3n2)n1` [Example 3-6, 1-[2-(2-Ethyl-2H-tetrazol-5-yl)-ethyl]-3-(6-pyridin-3-yl-imidazo[1,2-a]pyrazin-2-yl)-urea] came in with an inhibition constant (Ki) of 0.082 µM. On to `CC(C)n1nnc(CCNC(=O)Nc2cn3cc(-c4cncc(OC5CCOCC5)c4)ccc3n2)n1` [drawing 39], for which, under setting [1], the Ki was determined as 0.147 µM. The same measure, in the same setting: the figure for `O=C(NCCc1nnn(CCF)n1)Nc1cn2cc(-c3cncc(C(F)(F)F)c3)ccc2n1` [drawing 83] is 0.002 µM.

`CC(C)n1nnc(CCNC(=O)Nc2cn3cc(-c4cncc(-c5ccccc5)c4)ccc3n2)n1` [Example 1-16, 1-[2-(2-Isopropyl-2H-tetrazol-5-yl)-ethyl]-3-[6-(5-phenyl-pyridin-3-yl)-imidazo[1,2-a]pyridin-2-yl]urea] displayed a Ki under setting [2] of 0.24 µM. Under setting [1], `CC(C)n1nnc(CCNC(=O)Nc2cn3cc(-c4cncc(C(F)(F)F)c4)ccc3n2)n1` [drawing 27] had a Ki of 0.018 µM. Still for that read-out and setting: the figure for `CC(=O)c1cncc(-c2ccc3nc(NC(=O)NCCc4nnn(C(C)C)n4)cn3c2)c1` [drawing 99] is 0.008 µM. Take `CCn1nnc(CCNC(=O)Nc2cn3cc(-c4cncc5ccccc45)ccc3n2)n1` [Example 1-42, 1-[2-(2-Ethyl-2H-tetrazol-5-yl)-ethyl]-3-(6-isoquinolin-4-yl-imidazo[1,2-a]pyridin-2-yl)-urea]: the affinity under setting [2], expressed as Ki, was 0.158 µM. The compound `COc1ccc(-c2ccc3nc(NC(=O)NCCc4nnn(CCF)n4)cn3c2)cn1` [drawing 53] registered a Ki under setting [1] of 0.075 µM. In the case of `O=C(NCCc1nnn(CCF)n1)Nc1cn2cc(-c3cncc(C(F)(F)F)c3)ccc2n1` [Example 1-35, 1-{2-[2-(2-Fluoro-ethyl)-2H-tetrazol-5-yl]-ethyl}-3-[6-(5-trifluoromethyl-pyridin-3-yl)-imidazo[1,2-a]pyridin-2-yl]-urea], under setting [2], the Ki was found to be 0.002 µM.

Regarding `CC(C)n1nnc(CCNC(=O)Nc2cn3cc(-c4cncc(OC5CCOCC5)c4)ccc3n2)n1` [Example 1-13, 1-[2-(2-Isopropyl-2H-tetrazol-5-yl)-ethyl]-3-{6-[5-(tetrahydro-pyran-4-yloxy)-pyridin-3-yl}-imidazo[1,2-a]pyridin-2-yl]-urea], under setting [2], the Ki is 0.147 µM. For `CC(C)n1nnc(CCNC(=O)Nc2cn3cc(-c4cncc(C#N)c4)ccc3n2)n1` [Example 1-3, 1-[6-(5-Cyano-pyridin-3-yl)-imidazo[1,2-a]pyridin-2-yl]-3-[2-(2-isopropyl-2H-tetrazol-5-yl)-ethyl]-urea], the Ki under setting [2] is 0.04 µM. The compound `CCn1nnc(CCNC(=O)Nc2cn3cc(Br)ccc3n2)n1` [drawing 103] returned a Ki under setting [1] of 0.911 µM. Turning to `CCn1nnc(CCNC(=O)Nc2nc3ccc(-c4cncc(C#N)c4)cn3n2)n1` [Example 3-9, 1-[6-(5-Cyano-pyridin-3-yl)-[1,2,4]triazolo[1,5-a]pyridin-2-yl]-3-[2-(2-ethyl-2H-tetrazol-5-yl)-ethyl]-urea], affinity (Table 4) was put at a Ki of 0.418 µM.

For the compound `COc1ccc(-c2ccc3nc(NC(=O)NCCN(C)C)sc3c2)cn1` [Example 2-3, 1-(2-Dimethylamino-ethyl)-3-[6-(6-methoxy-pyridin-3-yl)-benzothiazol-2-yl]urea], the Ki under setting [3] stood at 0.038 µM. For the compound `CCn1nnc(CCNC(=O)Nc2cn3nc(-c4cccnc4)ccc3n2)n1` [Example 3-3, 1-[6-(pyridin-3-yl)-imidazo[1,2-b]pyridazin-2-yl]-3-[2-(2-ethyl-2H-tetrazol-5-yl)-ethyl]-urea], the Ki (Table 4) was found to be 0.031 µM. `O=C(NCCn1nnc(C2CC2)n1)Nc1cn2cc(-c3cncc(C(F)(F)F)c3)ccc2n1` [drawing 67]: the Ki under setting [1] is 0.028 µM. Under setting [2], `CCn1cnc(CCNC(=O)Nc2cn3cc(-c4cncc(C(F)(F)F)c4)ccc3n2)c1` [Example 1-23, 1-[2-(1-Ethyl-1H-imidazol-4-yl)-ethyl]-3-[6-(5-trifluoromethyl-pyridin-3-yl)-imidazo[1,2-a]pyridin-2-yl]-urea] displayed a Ki of 0.028 µM.

The compound `COc1cccc(-c2ccc3nc(NC(=O)NCCc4nnn(C(C)C)n4)cn3c2)c1` [Example 1-29, 1-[2-(2-Isopropyl-2H-tetrazol-5-yl)-ethyl]-3-[6-(3-methoxy-phenyl)-imidazo[1,2-a]pyridin-2-yl]-u] showed a Ki under setting [2] of 1.03 µM. Turning to `CCn1cnc(CCNC(=O)Nc2cn3cc(-c4cncc(C(F)(F)F)c4)ccc3n2)c1` [drawing 59], under setting [1], the affinity corresponds to a Ki of 0.028 µM. On to `CCc1cncc(-c2ccc3nc(NC(=O)NCCc4nnn(C(C)C)n4)cn3c2)c1` [Example 1-22, 1-[6-(5-Ethyl-pyridin-3-yl)-imidazo[1,2-a]pyridin-2-yl]-3-[2-(2-isopropyl-2H-tetrazol-5-yl)-ethyl]-urea], for which, under setting [2], the Ki was 0.025 µM.

With `CCn1nnc(CCNC(=O)Nc2cn3cc(-c4cncc(C(F)(F)F)c4)cnc3n2)n1` [Example 3-10, 1-[2-(2-Ethyl-2H-tetrazol-5-yl)-ethyl]-3-[6-(5-trifluoromethyl-pyridin-3-yl)-imidazo[1,2-a]pyrimnidin-2-yl]-urea], under “Table 4”, the Ki turned out to be 0.884 µM. `CC(C)n1nnc(CCNC(=O)Nc2cn3cc(-c4ccccc4)ccc3n2)n1` [Example 1-31, 1-[2-(2-Isopropyl-2H-tetrazol-5-yl)-ethyl]-3-(6-phenyl-imidazo[1,2-a]pyridin-2-yl)-urea] had a Ki under setting [2] of 0.423 µM. `O=C(NCCc1nnn(CCF)n1)Nc1nc2ccc(-c3cccnc3)cc2s1` [Example 2-1, 1-{2-[2-(2-Fluoro-ethyl)-2H-tetrazol-5-yl]-ethyl}-3-(6-pyridin-3-yl-benzothiazol-2-yl)-urea]: the Ki under setting [3] came to 0.008 µM. Under setting [2], `CCn1nnc(CCNC(=O)Nc2cn3cc(-c4cccc(C(F)(F)F)c4)ccc3n2)n1` [Example 1-9, 1-[2-(2-Ethyl-2H-tetrazol-5-yl)-ethyl]-3-[6-(3-trifluoromethyl-phenyl)-imidazo[1,2-a]pyridin-2-yl]-urea] showed a Ki of 0.24 µM. `CCn1nnc(CCNC(=O)Nc2cn3cc(-c4cnn(C)c4)ccc3n2)n1` [Example 1-40, 1-[2-(2-Ethyl-2H-tetrazol-5-yl)-ethyl]-3-[6-(1-methyl-1H-pyrazol-4-yl)-imidazo[1,2-a]pyridin-2-yl]urea] had a Ki under setting [2] of 0.456 µM. Take `CC(C)n1nnc(CCNC(=O)Nc2cn3cc(-c4cncc(Cl)c4)ccc3n2)n1` [Example 1-12, 1-[6-(5-Chloro-pyridin-3-yl)-imidazo[1,2-a]pyridin-2-yl]-3-[2-(2-isopropyl-2H-tetrazol-5-yl)-ethyl]urea]: under setting [2], affinity was put at a Ki of 0.05 µM. For `Cn1nnc(CCNC(=O)Nc2cn3cc(-c4cncc(C(F)(F)F)c4)ccc3n2)n1` [Example 1-38, 1-[2-(2-Methyl-2H-tetrazol-5-yl)-ethyl]-3-[6-(5-trifluoromethyl-pyridin-3-yl)-imidazo[1,2-a]pyridin-2-yl]-urea], the Ki under setting [2] came to 0.012 µM. Where the note is “Table 4”, `CCn1nnc(CCNC(=O)Nc2cn3nc(-c4cncc(C(F)(F)F)c4)ccc3n2)n1` [Example 3-1, 1-[2-(2H-Ethyl-2H-tetrazole-5-yl)-ethyl]-3-[6-(5-trifluoromethyl-pyridin-3-yl)-imidazo[1,2-b]pyridazin-2-yl]-urea] showed a Ki of 0.012 µM. In turn, `O=C(NCCc1nnn(CCF)n1)Nc1nc2ccc(-c3cncc(C(=O)N4CCOCC4)c3)cc2s1` [Example 2-7, 1-{2-[2-(2-Fluoro-ethyl)-2H-tetrazol-5-yl]-ethyl}-3-{6-[5-(morpholine-4-carbonyl)-pyridin-3-yl]-benzothiazol-2-yl}-urea] registered a Ki under setting [3] of 0.0055 µM. Compound `COc1ccc(-c2ccc3nc(NC(=O)NCCc4nnn(C(C)C)n4)cn3c2)cn1` [Example 1-19, 1-[2-(2-Isopropyl-2H-tetrazol-5-yl)-ethyl]-3-[6-(6-methoxy-pyridin-3-yl)-imidazo[1,2-a]pyridin-2-yl]-urea] showed a Ki under setting [2] of 0.301 µM. `CC(C)n1nnc(CCNC(=O)Nc2cn3cc(-c4cccc(F)c4)ccc3n2)n1` [Example 1-28, 1-[6-(3-Fluoro-phenyl)-imidazo[1,2-a]pyridin-2-yl]-3-[2-(2-isopropyl-2H-tetrazol-5-yl)-ethyl]urea] returned an inhibition constant Ki under setting [2] of 0.836 µM. `CCn1nnc(CCNC(=O)Nc2cn3cc(-c4cccc(C(F)(F)F)c4)ccc3n2)n1` [drawing 31] had a Ki under setting [1] of 0.24 µM. `CCn1nnc(CCNC(=O)Nc2nc3ccc(-c4cncc(C(F)(F)F)c4)cc3s2)n1` [Example 2-9, 1-[2-(2-Ethyl-2H-tetrazol-5-yl)-ethyl]-3-[6-(5-trifluoromethyl-pyridin-3-yl)-benzothiazol-2-yl]-urea] had a Ki under setting [3] of 0.06 µM.

Turning to `CC(C)n1nnc(CCNC(=O)Nc2cn3cc(-c4cccc(F)c4)ccc3n2)n1` [drawing 69], under setting [1], the inhibitory constant (Ki) turned out to be 0.836 µM. Under setting [1], `CCc1nnn(CCNC(=O)Nc2cn3cc(-c4cncc(C(F)(F)F)c4)ccc3n2)n1` [drawing 63] had an inhibition constant Ki of 0.026 µM.
